For the data set, the system named is l(2)gl primary tumor. Type of data set: in vivo, Drosophila melanogaster. How it is done:
Adult hosts injected with l(2)gl/l(2)gl larval tissue were orally administered drugs for 21 days after injection. Hosts were treated with 0 or 0.56 μg/ml of LY294002 (reduction of tumor size to 7% of untreated) and 0 or […] PD98059 (no effect).
Brain lobes from armadillo-lacZ marked larvae; were dissected and cut into halves. Each fragment was injected into the abdomen of a βgal^ml (a mutant that lacks endogenous […] expression) adult female using a 33 gauge needle, where it was cultured for 21 days at room temperature. Hosts that had received transplants were opened along the ventral midline and fixed in 3.7% formaldehyde in phosphate buffered saline (PBS). β-galactosidase in the donor tissue was detected by staining overnight at 37° C. in 0.02% X-gal in 10 mM Na pyrophosphate, 0.15 M NaCl, […], 5 mM ferricyanide, and 5 mM K ferrocyanide (Specialty Media). Secondary tumors were defined as β-galactosidase-marked cells distinct from the :implanted tumor, which was defined as the primary tumor.
The levels of Mothers against dpp (Mad), P13K, ERK, Akt, and cleaved caspase 3 were studied in brain extracts from l(2)gl/l(2)gl, l(2)gl/l(2)gl; sema-5c/sema-5c, and wild-type larvae. P13K was reduced in l(2)gl/l(2)gl;sema-5c/sema-5c compared to l(2)gl/l(2)gl. To further study the role of P13K in l(2)gl tumors, the P13K inhibitor, LY294002, was orally administered to Drosophila adults injected with l(2)gl/l(2)gl tissue.
Adult βgal^nl hosts transplanted with armadillo-lacZ marked l(2)gl brain fragments were treated with 0; 0.556; 5.56; and 55.6 μg/ml of the PI-3 K inhibitor, LY294002 (Sigma), by adding drug to fly media. Flies were cultured for 21 days on drug-containing food and stained for the presence of β-galactosidase. Primary tumor size was determined by counting the cells dissociated from tumors. See, e.g., FIG. 5.

As for `COc1cccc(-c2cc(=O)c3ccccc3o2)c1N` [PD98059], for the setting “adult hosts injected with l(2)gl/l(2)gl larval tissue, oral, 0.56 μ/ml, 21 days after injection (FIG. 5)”, the “effect on l(2)gl primary tumor growth” value was “no effect”.
`O=c1cc(N2CCOCC2)oc2c(-c3ccccc3)cccc12` [LY294002]: the “primary tumor size (% of untreated)” value (adult hosts injected with l(2)gl/l(2)gl larval tissue, oral, 0.56 μg/ml, 21 days after injection (FIG. 5)) is reported as 7 % of untreated. For the same molecule, where the note is “in vivo, po”, the “adverse effects to the hosts” value was “without adverse effects”. The primary tumor size (orally administered to Drosophila adults injected with l(2)gl/l(2)gl tissue, dose not given) is 7 % of untreated hosts.

(Values after patent publication US20050005311A1, “High throughput screening for cancer genes” (priority 2003, published 2005).)
